From ChEMBL document CHEMBL1144263, “Synthesis and acetylcholinesterase inhibition of derivatives of huperzine B” (Bioorg Med Chem Lett, 2005)

Columns and labels:
Acetylcholinesterase = biological target: T1, Acetylcholinesterase (Rattus norvegicus, UniProt P37136); test: Inhibitory concentration against acetylcholinesterase from rat cortex homogenate by ellman method was determined
T1 sequence (P37136 whole entry): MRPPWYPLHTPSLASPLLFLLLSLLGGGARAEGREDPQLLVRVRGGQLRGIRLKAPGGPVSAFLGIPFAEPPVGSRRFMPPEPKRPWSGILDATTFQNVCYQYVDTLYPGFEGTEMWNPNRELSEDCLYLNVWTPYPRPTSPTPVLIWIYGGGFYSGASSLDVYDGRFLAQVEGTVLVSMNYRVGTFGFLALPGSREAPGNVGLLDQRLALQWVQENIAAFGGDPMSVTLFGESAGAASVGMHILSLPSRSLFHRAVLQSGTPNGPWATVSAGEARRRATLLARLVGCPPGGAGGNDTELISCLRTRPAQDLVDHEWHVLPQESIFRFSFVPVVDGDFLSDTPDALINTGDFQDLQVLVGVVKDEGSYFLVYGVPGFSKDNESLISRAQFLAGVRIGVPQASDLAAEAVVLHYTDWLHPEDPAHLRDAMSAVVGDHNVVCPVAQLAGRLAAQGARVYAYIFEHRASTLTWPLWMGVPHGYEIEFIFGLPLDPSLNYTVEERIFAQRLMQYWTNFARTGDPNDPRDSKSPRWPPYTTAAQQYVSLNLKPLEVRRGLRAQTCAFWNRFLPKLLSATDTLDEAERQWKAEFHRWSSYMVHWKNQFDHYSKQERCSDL

[1] = biological target: Acetylcholinesterase and butyrylcholinesterase (AChE and BChE) (Rattus norvegicus) (UniProt P37136+Q9JKC1); test: Ratio of inhibitory concentration for AChE and BChE; type: protein assay
Chain of Acetylcholinesterase and butyrylcholinesterase (AChE and BChE) (Rattus norvegicus) (Q9JKC1 1-597, one chain of several): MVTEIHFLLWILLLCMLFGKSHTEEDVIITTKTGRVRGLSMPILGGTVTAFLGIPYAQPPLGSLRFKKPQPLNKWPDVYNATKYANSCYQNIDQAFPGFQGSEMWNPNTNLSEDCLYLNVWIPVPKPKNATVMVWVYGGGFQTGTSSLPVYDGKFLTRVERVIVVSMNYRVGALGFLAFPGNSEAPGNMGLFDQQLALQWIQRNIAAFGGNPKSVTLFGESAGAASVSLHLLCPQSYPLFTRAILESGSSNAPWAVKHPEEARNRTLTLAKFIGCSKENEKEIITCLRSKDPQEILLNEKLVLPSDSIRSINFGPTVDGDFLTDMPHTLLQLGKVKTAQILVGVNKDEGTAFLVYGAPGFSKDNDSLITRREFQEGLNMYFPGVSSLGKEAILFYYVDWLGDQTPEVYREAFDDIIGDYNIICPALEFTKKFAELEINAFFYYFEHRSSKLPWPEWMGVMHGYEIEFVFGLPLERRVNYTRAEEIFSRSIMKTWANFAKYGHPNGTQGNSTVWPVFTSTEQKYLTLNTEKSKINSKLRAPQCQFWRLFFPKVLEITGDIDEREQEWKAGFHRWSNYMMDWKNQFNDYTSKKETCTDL

Butyrylcholinesterase = Butyrylcholinesterase (Rattus norvegicus, UniProt Q9JKC1); test: Inhibitory concentration against butyrylcholinesterase from rat serum
Chain of Butyrylcholinesterase (Q9JKC1 whole entry): as the sequence (Q9JKC1 1-597, one chain of several) above

Compound | IC50 (Acetylcholinesterase) | Selectivity [1] | IC50 (Butyrylcholinesterase)
COc1ccc(CN2CCN(CC(=O)N3CCC[C@@H]4C5C=C(C)C[C@]43c3ccc(=O)[nH]c3C5)CC2)cc1 | 5.75 µM |  | 
CC1=CC2Cc3[nH]c(=O)ccc3[C@@]3(C1)[C@@H]2CCCN3C(=O)CN1CCN(Cc2ccc([N+](=O)[O-])cc2)CC1 | 5.58 µM |  | 
CC1=C[C@H]2Cc3nc(O)ccc3[C@@]3(C1)[C@@H]2CCCN3CN1CCN(Cc2ccccc2)CC1 | 31.6 µM |  | 
CC1=CC2Cc3[nH]c(=O)ccc3[C@@]3(C1)[C@@H]2CCCN3CCN1CCN(CC[N+]2(C(=O)CN)CCC[C@@H]3C4C=C(C)C[C@]32c2ccc(=O)[nH]c2C4)CC1 (stereo partly drawn) | 0.407 µM | 472 | 192 µM
CC1=C[C@H]2Cc3[nH]c(=O)ccc3[C@@]3(C1)[C@@H]2CCCN3C(=O)CN1CCCN(CC(=O)N2CCC[C@@H]3[C@H]4C=C(C)C[C@]32c2ccc(=O)[nH]c2C4)CC1 | 0.114 µM | 1500 | 171 µM
CC1=C[C@H]2Cc3nc(O)ccc3[C@@]3(C1)[C@@H]2CCCN3C(=O)N1CCN(Cc2cccnc2)CC1 | 38.1 µM |  | 
CC1=C[C@H]2Cc3nc(O)ccc3[C@@]3(C1)[C@@H]2CCCN3CCN(C)Cc1ccccc1 | 66.5 µM |  | 
CC1=CC2Cc3[nH]c(=O)ccc3[C@@]3(C1)[C@@H]2CCCN3C(=O)CN(C)CCCc1ccccc1 | 6.19 µM |  | 
CC1=C[C@H]2Cc3[nH]c(=O)ccc3[C@@]3(C1)[C@@H]2CCCN3C(=O)CN1CCN(CC(=O)N2CCC[C@@H]3[C@H]4C=C(C)C[C@]32c2ccc(=O)[nH]c2C4)CC1 | 1.17 µM | > 157 | > 184 µM
CC1=C[C@H]2Cc3[nH]c(=O)ccc3[C@@]3(C1)[C@@H]2CCCN3CCN1CCCN(CCN2CCC[C@@H]3[C@H]4C=C(C)C[C@]32c2ccc(=O)[nH]c2C4)CC1 | 0.218 µM | 573 | 125 µM
CC1=C[C@H]2Cc3[nH]c(=O)ccc3[C@@]3(C1)[C@@H]2CCCN3CCN(Cc1ccccc1)c1ccccc1 | > 54 µM |  | 
CC1=C[C@H]2Cc3nc(O)ccc3[C@@]3(C1)[C@@H]2CCCN3CCN(C)CCc1ccccc1 | 20.7 µM |  | 
CC1=C[C@H]2Cc3[nH]c(=O)ccc3[C@@]3(C1)NCCC[C@H]23 |  |  | 157 µM
CC1=C[C@H]2Cc3[nH]c(=O)ccc3[C@@]3(C1)[C@@H]2CCCN3C(=O)CN(C)Cc1ccccc1 | 50.7 µM |  | 
CC1=CC2Cc3[nH]c(=O)ccc3[C@@]3(C1)[C@@H]2CCCN3C(=O)CN1CCN(Cc2ccccc2)CC1 | 33.3 µM |  | 
CC1=C[C@H]2Cc3nc(O)ccc3[C@@]3(C1)[C@@H]2CCCN3C(=O)CN(Cc1ccccc1)c1ccccc1 | > 52 µM |  | 
COc1ccc(CN2CCN(CN3CCC[C@@H]4[C@H]5C=C(C)C[C@]43c3ccc(O)nc3C5)CC2)cc1 | 10.3 µM |  | 
CC1=C[C@H]2Cc3nc(O)ccc3[C@@]3(C1)[C@@H]2CCCN3CCN(C)CCCc1ccccc1 | 9.53 µM |  | 
CC1=C[C@H]2Cc3nc(O)ccc3[C@@]3(C1)[C@@H]2CCCN3CCN1CCN(Cc2cccnc2)CC1 | 26.7 µM |  | 
CC1=CC2Cc3[nH]c(=O)ccc3[C@@]3(C1)[C@@H]2CCCN3C(=O)CN(C)CCc1ccccc1 | 23.5 µM |  | 
